Values of other authors, collected in publication PMC2110886 (PLoS ONE, 2007).

Test system: Seasonal influenza strains
Design: method as in PMID 15709056
Details: in children; cited from earlier work

CCOC(=O)C1=C[C@@H](OC(CC)CC)[C@H](NC(C)=O)[C@@H](N)C1 [Oseltamivir, oseltamivir, reference compound]
rate of resistance to oseltamivir: 4%
